Values joined by “and” are separate entries in the source; they are usually repeats but may differ in a detail not shown here. Identical values can stand only once.
Columns and labels:
Type in all cases: cell-based, Human
Toledo Cells = test: FACS-based phagocytosis assay, macrophages cocultured with Toledo cells
Description: FACS-based phagocytosis assays were performed to evaluate the phagocytic abilities of macrophages.
Toledo Cells (a tumor cell line, as a target) were labelled with CellTrace™ Far Red and plated into 96-well plate at a density of 0.15×10^6 cells/well for 12 hours. The Macrophages were prepared as discussed above and then labelled with CellTrace Violet. Next, the macrophages were added into the plate as an effector at an effector:target (Toledo) ratio of 1:3, giving a final density of macrophages at 0.05×10^6 cells/well. Macrophages and tumor cells were cocultured for 2-6 h at 37° C. in the presence of the indicated treatments (small molecule therapeutic agents, CD47 antibody, CD20 antibody or combinations). The incubation time depending on the phagocytosis rate, expecting phagocytosis of 5-20% cells.
Then, cells were acquired and data were analyzed.

CD47 = test: FACS analysis of expression level of CD47 on tumor cell surface; conditions: Toledo cells; for Mean Fluorescence Intensity (MFI) CD47: 12 hours
Description: (§1) For FACS analysis, on the day of analysis (day 1), Toledo cells were seeded into 96 well plate and cultured at a density of 0.2×10^6 cells/well. Then the cells were treated with the selected small molecule therapeutic agents for 12 hours.
(§2) On day 2, cells were harvested, washed twice and then re-suspended in 100 uL FACS buffer subject to FACS analysis. For detection of the expression of calreticulin and CD47, cells were incubated with anti-calreticulin antibody and commercially available anti-CD47 antibody (BD Biosciences, Catalog number: 561249) in dark at 4° C. for 30 mins.
(§3) Then, the cells were subject to FACS analysis. Data was acquired and analyzed.

Calreticulin = test: FACS analysis of expression level of calreticulin on tumor cell surface; conditions: Toledo cells; for Mean Fluorescence Intensity (MFI) Calreticulin: 12 hours
Description: as §1, §2, §3

macrophages = test: Macrophage Viability Assay (CellTiter-Glo); conditions: for Macrophage viability (CellTiter-Glo Luminescent Cell Viability Assay): 16 hours, three replicate lines
Description: Then, the monocytes isolated by MACS were subsequently cultured in fresh complete medium supplemented with recombinant human granulocyte-macrophage colony-stimulating factor GM-CSF (50 ng/ml) and human recombinant IL-4 (35 ng/ml) to activate differentiated macrophages. After 6 days of culture (on day 7), cells were harvested, pooled together and counted for next use.
The cells from Example 2 were plated into a 96-well flat bottom plate at a density of 0.05×10^6 cells/well. After 2 hours of incubation, the macrophages were well attached to the plate. Then selected small molecule therapeutic agents were added to the well and cocultured for 16 hours. On day 8, macrophage viability was assessed by CellTiter-Glo® Luminescent Cell Viability Assay, according to the manufacture's instruction.

Nc1ncn([C@@H]2O[C@H](CO)[C@@H](O)[C@H]2O)c(=O)n1 [Azacitidine]
macrophage phagocytosis (untreated = 1.00) (Toledo Cells; Cpd 0.0016 uM, T4J = 0, R = 0): 1.09 | macrophage phagocytosis (untreated = 1.00) (Toledo Cells; Cpd 0.0016 uM, T4J = 0, R = 0.01 ug/ml): 1.63 | macrophage phagocytosis (untreated = 1.00) (Toledo Cells; Cpd 0.0016 uM, T4J = 0.1 ug/ml, R = 0): 2.66 | macrophage phagocytosis (untreated = 1.00) (Toledo Cells; Cpd 0.0016 uM, T4J = 0.1 ug/ml, R = 0.01 ug/ml): 3.26 | macrophage phagocytosis (untreated = 1.00) (Toledo Cells; Cpd 0.008 uM, T4J = 0, R = 0): 1.07 | macrophage phagocytosis (untreated = 1.00) (Toledo Cells; Cpd 0.008 uM, T4J = 0, R = 0.01 ug/ml): 1.73 | macrophage phagocytosis (untreated = 1.00) (Toledo Cells; Cpd 0.008 uM, T4J = 0.1 ug/ml, R = 0): 2.69 | macrophage phagocytosis (untreated = 1.00) (Toledo Cells; Cpd 0.008 uM, T4J = 0.1 ug/ml, R = 0.01 ug/ml): 3.18 | macrophage phagocytosis (untreated = 1.00) (Toledo Cells; Cpd 0.04 uM, T4J = 0, R = 0): 1.12 | macrophage phagocytosis (untreated = 1.00) (Toledo Cells; Cpd 0.04 uM, T4J = 0, R = 0.01 ug/ml): 1.71 | macrophage phagocytosis (untreated = 1.00) (Toledo Cells; Cpd 0.04 uM, T4J = 0.1 ug/ml, R = 0): 2.76 | macrophage phagocytosis (untreated = 1.00) (Toledo Cells; Cpd 0.04 uM, T4J = 0.1 ug/ml, R = 0.01 ug/ml): 3.29 | macrophage phagocytosis (untreated = 1.00) (Toledo Cells; Cpd 0.2 uM, T4J = 0, R = 0): 1.16 | macrophage phagocytosis (untreated = 1.00) (Toledo Cells; Cpd 0.2 uM, T4J = 0, R = 0.01 ug/ml): 1.69 | macrophage phagocytosis (untreated = 1.00) (Toledo Cells; Cpd 0.2 uM, T4J = 0.1 ug/ml, R = 0): 2.57 | macrophage phagocytosis (untreated = 1.00) (Toledo Cells; Cpd 0.2 uM, T4J = 0.1 ug/ml, R = 0.01 ug/ml): 3.13 | macrophage phagocytosis (untreated = 1.00) (Toledo Cells; Cpd 1 uM, T4J = 0, R = 0): 1.30 | macrophage phagocytosis (untreated = 1.00) (Toledo Cells; Cpd 1 uM, T4J = 0, R = 0.01 ug/ml): 1.94 | macrophage phagocytosis (untreated = 1.00) (Toledo Cells; Cpd 1 uM, T4J = 0.1 ug/ml, R = 0): 2.70 | macrophage phagocytosis (untreated = 1.00) (Toledo Cells; Cpd 1 uM, T4J = 0.1 ug/ml, R = 0.01 ug/ml): 3.45 | phagocytic ability of macrophages (Toledo Cells; agent itself or antibody combination): can also enhance the phagocytic ability of macrophages | phagocytic ability of macrophages (Toledo Cells; triple combination: T4J, Rituximab and the small molecule): enhances the phagocytic ability of macrophages much higher | Mean Fluorescence Intensity (MFI) CD47 (CD47; 0.008 uM): 8204 | Mean Fluorescence Intensity (MFI) CD47 (CD47; 0.04 uM): 8062 | Mean Fluorescence Intensity (MFI) CD47 (CD47; 0.2 uM): 8460 | Mean Fluorescence Intensity (MFI) CD47 (CD47; 1 uM): 6638 | Mean Fluorescence Intensity (MFI) CD47 (CD47; 5 uM): 5229 | inhibition of CD47 expression (CD47; dose of 5 μM): ~50% | Mean Fluorescence Intensity (MFI) Calreticulin (Calreticulin; 0.008 uM): 65.8 | Mean Fluorescence Intensity (MFI) Calreticulin (Calreticulin; 0.04 uM): 71.9 | Mean Fluorescence Intensity (MFI) Calreticulin (Calreticulin; 0.2 uM): 88.4 | Mean Fluorescence Intensity (MFI) Calreticulin (Calreticulin; 1 uM): 174 | Mean Fluorescence Intensity (MFI) Calreticulin (Calreticulin; 5 uM): 491 | increase of the expression level of calreticulin (Calreticulin; dose of 5 μM): about 20 folds | Macrophage viability (CellTiter-Glo Luminescent Cell Viability Assay) (macrophages; Cpd 0.002 uM): 4076 and 6020 and 5860 | Macrophage viability (CellTiter-Glo Luminescent Cell Viability Assay) (macrophages; Cpd 0.008 uM): 4648 and 6100 and 6132 | Macrophage viability (CellTiter-Glo Luminescent Cell Viability Assay) (macrophages; Cpd 0.04 uM): 4792 and 5892 and 6380 | Macrophage viability (CellTiter-Glo Luminescent Cell Viability Assay) (macrophages; Cpd 0.2 uM): 5160 and 6136 and 6440 | Macrophage viability (CellTiter-Glo Luminescent Cell Viability Assay) (macrophages; Cpd 1 uM): 5140 and 6108 and 6256 | Macrophage viability (CellTiter-Glo Luminescent Cell Viability Assay) (macrophages; Cpd 5 uM): 4768 and 6132 and 6032 | Macrophage viability (CellTiter-Glo Luminescent Cell Viability Assay) (macrophages; Cpd 25 uM): 4560 and 5520 and 5324 | Macrophage viability (CellTiter-Glo Luminescent Cell Viability Assay) (macrophages; Cpd 50 uM): 4580 and 5420 and 4932 | toxicity to macrophages (macrophages; dose as high as 50 μM): showed toxicity | toxicity to macrophages (macrophages; dose lower than 10 μM): little toxic

Source: patent US20230174649A1, “PHARMACEUTICAL COMPOSITIONS CONTAINING ANTI-CD47 ANTIBODIES” (I-MAB BIOPHARMA US LIMITED, priority 2020, published 2023)
